Experiment [1] has as its system male FVB/N mice on high salt diet, heart. Put plainly: High salt (5%) diet intervention model, heart. It counts as in vivo, mouse. The method, then: (§1) C) In the intervention (or reversal) model, male FVB/N mice were treated with selective AT2Rs agonists after the establishment of cardiovascular disease using a high salt diet, in order to reverse cardiovascular pathologies. In some experiments, the ACE inhibitor captopril (dose) or the ARB candesartan cilexetil (dose) were given for 4 weeks in drinking water. Organs examined included heart, kidney and liver and these were compared to either untreated mice or high salt-fed mice that were treated with saline.
A high-salt diet (5% salt) model is a clinically relevant and disease-reversal model which can replicate the high salt intake by humans which is currently a growing problem in the developed countries. High salt intake induces changes in the cardiovascular system and induces remodelling and fibrosis in the heart, kidney and liver.
(§2) Mice were placed on either a normal rodent diet (0.35% NaCl) which acted as control or a high salt diet (5% sodium in food chow) for 8 weeks. After 4 weeks, mice were also treated subcutaneously (via osmotic mini-pump) with either saline or an AT2R agonist (75 pmol/kg/min subcutaneously) for 4 weeks. Mice continued to be fed a high salt diet whilst receiving these treatments.
All mice which underwent surgery were anaesthetized with Isoflurane (Isorrane) (5% induction and 2.5% maintenance) and an incision made in the midscapular region through which osmotic minipumps (Alzet model 2004, Alza Corp) were inserted for subcutaneous drug administration. The incision area was sutured with 6/0 DY silk (Dynek Pty Ltd) and antibiotic powder applied (Cicatrin, Pfizer) followed by intramuscular injection of the analgesic Cartrophen (0.1 ml of a 1.5 mg/ml stock solution; Biopharm Australia). Systolic blood pressure (SBP) was measured using non-invasive tail-cuff plethysmography apparatus (MC4000 Blood Pressure Analysis System, Hatteras Instrument Inc) before drug treatment (week 0), and then fortnightly. At the end of the 8 week treatment period mice were weighed before being killed by overdose of isoflurane inhalation and cervical dislocation.
To measure collagen deposition, frozen sections of heart, kidney or aorta (all 5 μm thickness) were air dried for 10 minutes and were brought through 3 times xylene (2 minutes each), and 3 times absolute alcohol washes before being rinsed in tap H2O for 30 seconds. Staining with an optimal concentration of picrosirius red (in this instance 0.05% picrosirius red diluted in saturated picric acid) was performed and left for an hour. Sections were then rinsed in water and differentiated in 0.01M HCl for 2 minutes, followed by dehydration via 3 times absolute alcohol washes. Then, slides were brought through 3 times xylene washes before being cover slipped according to standard histological techniques using DPX as the mounting medium. Images were taken under ×20 magnification, using bright field (Olympus, BX51) and circularized polarized light microscopy (DM IRB, Leica) while percentage of positive interstitial collagen staining per total field of view was quantified using ImageJ 1.46 software (Java, NIH), and averaged out from a total of eight views as the final percentage collagen content in a particular animal.
Immunostaining was performed on 5 μm thick transverse frozen heart sections. These sections were air dried and fixed in ice-cold acetone for approximately 15 minutes before washing with 0.01M PBS buffer (3×10 minutes). Sections were then incubated with 10% goat serum in 0.01M PBS for 30 minutes to reduce non-specific binding. If the primary antibody is raised in goat, this pre-blocked medium is substituted with 5% BSA in PBS and Triton-X. Next, blocking buffers were removed and the primary antibody to respective markers were applied overnight at room temperature based on the following dilution and origin of the antibodies: α-SMA (1:500, Abcam), Vimentin (1:500, Santa Cruz), P-IκBα (1:200, Cell Signalling), F4/80 macrophage (1:100, Serotec). […]

The test system of experiment [2] is male FVB/N mice on high salt diet, liver. Put plainly: High salt (5%) diet intervention model, liver. The format is in vivo, mouse. Conditions: weeks 5-8; peptides 75 pmol/kg/min s.c.; Cand 2 mg/kg/day, captopril 3 mg/kg/day. The method, then:
as §1, §2
Liver sections used either picrosirius red staining or Masson's trichome staining as described above. Higher concentrations of picrosirius red were often used under polarized light microscopy. The liver was removed and sectioned with half of the liver placed in 10% formalin and the rest frozen in liquid nitrogen before being stored in ˜80° C. freezer for future use. Formalin fixed, paraffin embedded livers were sectioned at thickness of 4 μm and were stained with Masson's trichrome according to standard procedures for analysis of liver fibrosis. […] Sections were re-fixed in Bouin's solution for 1 hour at 56° C. to improve staining quality then rinsed in running tap water for 5-10 minutes to remove yellow colour. Following this, sections were stained in Weigert's iron hematoxylin working solution for 10 minutes. Rinsed in running warm tap water for 10 minutes. Washed in distilled water. Stained in Biebrich scarlet-acid fuchsin solution for 10-15 minutes.
Washed in distilled water. Differentiated in phosphomolybdic-phosphotungstic acid solution for 10-15 minutes or until collagen was no longer red. Sections were transferred directly (without rinse) to aniline blue solution and stained for 5-10 minutes. Rinsed briefly in distilled water and differentiated in 1% acetic acid solution for 2-5 minutes. Washed in distilled water. […] Mounted with DPX mounting medium. Quantification of liver fibrosis was performed using images captured with the Aperio scanner (Monash Histology Platform, Monash University), with ×5 magnification. Each liver section had 5 different fields of view photographed at this magnification. Percentage of interstitial and perivascular collagen was analysed and quantified using ImageJ 1.48 software (Java, NIH), and the percentage from 5 random fields of view were averaged for final percentage of collagen for that particular animal. All analysis of collagen expression was conducted in a blinded fashion.

In another experiment the target is T1, human AT2R (Homo sapiens, UniProt P50052).
T1 construct: expressed in transfected cells
T1 sequence (P50052 1-363): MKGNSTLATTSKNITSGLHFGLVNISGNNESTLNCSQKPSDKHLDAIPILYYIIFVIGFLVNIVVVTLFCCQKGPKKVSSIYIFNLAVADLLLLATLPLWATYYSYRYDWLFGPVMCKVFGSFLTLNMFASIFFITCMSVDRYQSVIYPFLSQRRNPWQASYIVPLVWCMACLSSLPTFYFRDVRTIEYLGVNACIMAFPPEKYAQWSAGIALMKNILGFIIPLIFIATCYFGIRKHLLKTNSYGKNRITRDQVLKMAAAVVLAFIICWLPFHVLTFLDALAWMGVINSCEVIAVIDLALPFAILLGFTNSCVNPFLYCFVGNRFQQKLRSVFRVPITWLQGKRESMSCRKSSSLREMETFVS
Put plainly: Competition radioligand binding (125I-Sar1-Ile8-AngII) in AT2R-transfected HEK-293 cells. Conditions: for binding at AT2R (displacement of 125I-Sar1-Ile8-AngII), in words: transfected HEK-293 cells.

In a further experiment the target is T2, human AT1R (Homo sapiens, UniProt P30556).
T2 construct: expressed in transfected cells
T2 sequence (P30556 1-359): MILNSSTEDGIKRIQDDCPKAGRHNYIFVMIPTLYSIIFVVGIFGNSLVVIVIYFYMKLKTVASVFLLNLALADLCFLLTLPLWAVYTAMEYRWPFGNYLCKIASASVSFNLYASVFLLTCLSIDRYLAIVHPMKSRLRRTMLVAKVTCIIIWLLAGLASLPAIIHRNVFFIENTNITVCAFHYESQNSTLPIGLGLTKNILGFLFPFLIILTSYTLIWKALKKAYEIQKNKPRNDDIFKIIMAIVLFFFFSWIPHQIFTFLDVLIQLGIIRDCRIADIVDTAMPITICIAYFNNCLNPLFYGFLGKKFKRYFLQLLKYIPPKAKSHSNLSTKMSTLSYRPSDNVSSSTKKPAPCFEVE
Put plainly: Competition radioligand binding (125I-Sar1-Ile8-AngII) in AT1R-transfected HEK-293 cells.

Another experiment has as its system mouse aortae. Put plainly: Vasorelaxation of pre-contracted mouse aortae. The settings on record: 0.1-1000 nM, pre-contracted with U46619. From the text: FIG. 17: The selective AT2R ligands, β-Pro^7-Ang III and D-Arg^2-β-Pro^7-Ang III, are functional agonists in vasculature.
The test system of experiment [3] is human cardiac fibroblasts. Put plainly: TGF-β1-induced collagen production in human cardiac fibroblasts (Western blot). It counts as cell-based. The settings on record: co-treated with TGF-β1 for 3 days, increasing concentrations up to 1 μM. The procedure:
D) Human cardiac fibroblasts (HCFs) were treated with TGFβ1 to induce a pro-fibrotic phenotype state in cell culture, exemplified by increased collagen-1 production, measured by Western blot. HCFs were treated with TGFβ1 alone, or in the presence of an AT2R agonist for 3 days, and the ability of AT2R agonists to inhibit TGFβ1-induced collagen-1 production was measured.
Commercially available human cardiac fibroblasts (HCF, Catalog #6300, Sciencell, Calif., USA) were grown in T75 flask maintained in an incubator at 37° C., 5% CO2. Complete media composition: M199 media (#11150-059, life technologies)+10% FBS (#10437-028, life technologies)+1% Fibroblast Growth Supplement-2 (#2382, ScienCell)+1% penicillin/streptomycin 10,000 U/ml antibiotics (#15140-122, Life Technologies). Fresh complete media was replenished every alternate day until culture reached 70% confluence in which media is replenished daily until it reached approximately 90% confluence in order to passage/subculture. To subculture, media was discarded and culture was rinsed with warm PBS. After which, culture was detached using warm 0.05% Trypsin+EDTA with gentle swirling of flask to make sure cells were not adherent to surface of flask. Trypsin was then neutralized with complete media and suspension was then transferred into a new falcon tube and centrifuged at 1000 rpm for 5 minutes. Supernatant was discarded and pellet of cells were resuspended with 5 ml of complete media, followed by cell counting. For subculturing/passaging, 1 million HCFs are placed into a T75 flask. For Picrosirius Red (PSR) staining or immunofluorescence experiments, 100 k cells were loaded per well in a 24 well plate lined with round coverslips. […]
Once treatment is complete, cells were washed with warm PBS and detached using Accutase (A6964, Sigma), with 5 minutes incubation at 37° C. […] The supernatant (˜20 ul) was transferred to a new tube and protein concentrations were measured using Biorad Lowry protein assay. Protein quantification of respective markers were performed via standard western blot analysis. […]
A general note: In western blotting, separated proteins are transferred to a membrane and probed.

The subject of experiment [4] is human cardiac fibroblasts. Put plainly: Pro-fibrotic effect of Ang II in human cardiac fibroblasts. It counts as cell-based.
Procedure: Commercially available human cardiac fibroblasts (HCF, Catalog #6300, Sciencell, Calif., USA) were grown in T75 flask maintained in an incubator at 37° C., 5% CO2. Complete media composition: M199 media (#11150-059, life technologies)+10% FBS (#10437-028, life technologies)+1% Fibroblast Growth Supplement-2 (#2382, ScienCell)+1% penicillin/streptomycin 10,000 U/ml antibiotics (#15140-122, Life Technologies). Fresh complete media was replenished every alternate day until culture reached 70% confluence in which media is replenished daily until it reached approximately 90% confluence in order to passage/subculture. To subculture, media was discarded and culture was rinsed with warm PBS. After which, culture was detached using warm 0.05% Trypsin+EDTA with gentle swirling of flask to make sure cells were not adherent to surface of flask. Trypsin was then neutralized with complete media and suspension was then transferred into a new falcon tube and centrifuged at 1000 rpm for 5 minutes. […]

Entries after “also recorded” stand apart in the source; their conditions may differ. Where two headings read alike, the source gives them in different places. Square brackets hold non-standard residues; d marks the D form. Primed or numbered codes have the meaning given here. Ends that are not written are not given here. βVal″ = beta-form valine

Procedure for human AT1R: (§3) This will lead to the generation of IC50 values that determine the relative ability of test compounds to interact with both Angiotensin receptors.
(§4) Cells were grown to approximately 80% confluence before being re-plated into 48 well plates at 1×10^5 cells/well and grown for 48 hours at 37° C. for a whole cell competition binding assay. [125I]-Sar1Ile8Ang II at 50,000 cpm, incubated for 45 minutes at 37° C., in the absence or presence of unlabeled ligands, prepared in binding buffer (DMEM, 0.1% BSA), were used in the competition assays at concentrations ranging from 1 μM to 10 μM. For each experiment, each ligand concentration was tested in duplicate or triplicate, and each experiment was repeated at least 3 separate times. […] The ability of each ligand to inhibit specific binding of [125I]-Sar1Ile8Ang II was measured on a gamma counter with all counts corrected for NSB.
Procedure for human AT2R: as §3, §4

As for “D-Arg-Val-Tyr-Ile-His-β-Pro-Phe [D-Arg β-Pro-Ang III]”, the “myofibroblast differentiation in heart (α-SMA)” value in experiment [1] (75 pmol/kg/min s.c., weeks 5-8) is listed as “fully reversed the high salt-induced myofibroblast differentiation”. Moreover, the “cardiac fibrosis (picrosirius red)” value in experiment [1] (weeks 5-8 of high salt diet, peptides 75 pmol/kg/min s.c. mini-pump, Cand 2 mg/kg/day, captopril 3 mg/kg/day in drinking water) is “reversed established cardiac fibrosis”. In addition, in experiment [2], the “liver fibrosis (picrosirius red, polarized light)” value is “normalised liver fibrosis” and the “liver steatosis (Oil Red O)” value is recorded as “significantly reduced steatosis”. Moreover, the “Fold AT2R selectivity” value at human AT2R (AT2R over AT1R, Table 3) is listed as >300,000 fold. Moreover, the AT2R/AT1R selectivity ratio on human AT2R (approximate or conservatively estimated) is > 300,000 fold. The “binding at AT2R (displacement of 125I-Sar1-Ile8-AngII), in words” value on human AT2R is “high affinity”. For the same molecule, the “binding at AT1R (displacement of 125I-Sar1-Ile8-AngII), in words” value on human AT1R (listed as D-Arg^2-β-Pro^7-Ang III) is given as “bind poorly; also recorded: did not substantially displace”. The “vasorelaxation of pre-contracted aortae” value with mouse aortae was “concentration-dependent vasorelaxation”.
On to “β-Val^3-Ang II: β-substituted Ang II peptide which only has ~50-fold AT2R:AT1R selectivity (DR[βVal″]YIHPF)”, for which the TGF-β1-induced collagen production entry in experiment [3] is on record as “failed to inhibit”.
Turning to `CC[C@H](C)[C@H](NC(=O)[C@H](Cc1ccc(O)cc1)NC(=O)[C@@H](NC(=O)C[C@H](CCCNC(=N)N)NC(=O)[C@@H](N)CC(=O)O)C(C)C)C(=O)N[C@@H](Cc1c[nH]cn1)C(=O)N1CCC[C@H]1C(=O)N[C@@H](Cc1ccccc1)C(=O)O` [βArg-Ang II, Asp-β-Arg-Val-Tyr-Ile-His-Pro-Phe], the TGF-β1-induced collagen production entry in experiment [3] is “inhibited the TGF-β1-mediated pro-fibrotic phenotype”.
For Ang II [reference compound], the “binding at AT2R (displacement of 125I-Sar1-Ile8-AngII), in words” value on human AT2R is given as “readily binds”. For the same molecule, the “myofibroblast differentiation (α-SMA expression)” value in experiment [4] (HCFs treated with Ang II) is recorded as “caused myofibroblast differentiation”. In experiment [4] (varying concentrations for 3 days, Western blot), the “protein expression of collagen” value is “dose-dependent increases”. Moreover, at human AT1R, the “binding at AT1R (displacement of 125I-Sar1-Ile8-AngII), in words” value was “readily binds”.
